ChEMBL document CHEMBL1131220, “Isosteric analogues of nicotinamide adenine dinucleotide derived from furanfurin, thiophenfurin, and selenophenfurin as mammalian inosine monophosphate dehydrogenase (type I and II) inhibitors” (J Med Chem, 1998)

Key:
[1] = molecular target: T1, Inosine-5'-monophosphate dehydrogenase 1 (Homo sapiens, UniProt P20839); experiment: The compound was tested for the inhibition towards IMP(Inosine 5'-monophosphate) substrate of Inosine-5'-monophosphate dehydrogenase 1
[2] = molecular target: T2, Inosine-5'-monophosphate dehydrogenase 2 (Homo sapiens, UniProt P12268); experiment: The compound was tested for the inhibition towards […] (Nicotinamide adenine dinucleotide) substrate of Inosine-5'-monophosphate dehydrogenase 2
[3] = molecular target: T2, Inosine-5'-monophosphate dehydrogenase 2; experiment: The compound was tested for the inhibition towards IMP(Inosine 5'-monophosphate) substrate of Inosine-5'-monophosphate dehydrogenase 2
[4] = molecular target: T1, Inosine-5'-monophosphate dehydrogenase 1; experiment: The compound was tested for the inhibition towards […] (Nicotinamide adenine dinucleotide) substrate of Inosine-5'-monophosphate dehydrogenase 1

T1 sequence (P20839 whole entry): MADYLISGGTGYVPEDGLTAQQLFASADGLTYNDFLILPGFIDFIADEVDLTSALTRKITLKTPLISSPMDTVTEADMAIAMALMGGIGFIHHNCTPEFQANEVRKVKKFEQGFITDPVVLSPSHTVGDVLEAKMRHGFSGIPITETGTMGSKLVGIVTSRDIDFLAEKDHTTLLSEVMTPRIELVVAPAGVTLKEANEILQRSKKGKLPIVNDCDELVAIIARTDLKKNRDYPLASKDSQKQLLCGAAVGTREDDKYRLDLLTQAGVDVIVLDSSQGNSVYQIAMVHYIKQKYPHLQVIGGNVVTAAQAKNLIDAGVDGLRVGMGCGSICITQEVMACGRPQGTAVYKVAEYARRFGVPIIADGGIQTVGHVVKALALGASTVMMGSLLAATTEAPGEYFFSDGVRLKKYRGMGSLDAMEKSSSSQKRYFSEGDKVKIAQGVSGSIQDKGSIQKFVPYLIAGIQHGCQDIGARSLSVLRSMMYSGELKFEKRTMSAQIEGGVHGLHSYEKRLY

Compound	Ki [1]	Ki [2]	Ki [3]	Ki [4]
NC(=O)c1c[se]c([C@@H]2O[C@H](COP(=O)(O)OP(=O)(O)OC[C@H]3O[C@@H](n4cnc5c(N)ncnc54)[C@H](O)[C@@H]3O)[C@@H](O)[C@H]2O)n1	33 nM	26 nM	21 nM	62 nM
NC(=O)c1coc([C@@H]2O[C@H](COP(=O)(O)OP(=O)(O)OC[C@H]3O[C@@H](n4cnc5c(N)ncnc54)[C@H](O)[C@@H]3O)[C@@H](O)[C@H]2O)c1	38000 nM	99100 nM	57900 nM	135000 nM
NC(=O)c1csc([C@@H]2O[C@H](COP(=O)(O)OP(=O)(O)OC[C@H]3O[C@@H](n4cnc5c(N)ncnc54)[C@H](O)[C@@H]3O)[C@@H](O)[C@H]2O)c1	370 nM	340 nM	320 nM	340 nM
NC(=O)c1c[se]c([C@@H]2O[C@H](COP(=O)(O)OP(=O)(O)OC[C@H]3O[C@@H](n4cnc5c(N)ncnc54)[C@H](O)[C@@H]3O)[C@@H](O)[C@H]2O)c1	580 nM	270 nM	1100 nM	260 nM
